# In ChEMBL document CHEMBL1156080, “Small molecule inhibitors of Myc/Max dimerization and Myc-induced cell transformation” (Bioorg Med Chem Lett, 2009):
# Calls of active or inactive are those of the source. The calls are words filed in the database; no cut-off is given here.
# What was measured:
# [1] = Inhibition of Myc/Max heterodimerization at 20 uM by FRET assay
# [2] = target: Transcription factor Jun (Gallus gallus) (UniProt P18870); test: Inhibition of Jun-mediated oncogenic transformation in chicken embryo fibroblasts
# [3] = target: Proto-oncogene tyrosine-protein kinase Src (Gallus gallus) (UniProt P00523); test: Inhibition of Src-mediated oncogenic transformation in chicken embryo fibroblasts
# [4] = species on record: Gallus gallus; test: Inhibition of Myc/Max heterodimerization in chicken embryo fibroblasts assessed as inhibition of oncogenically transformed cell foci formation at 20 uM
# [5] = Cytotoxicity against chicken embryo fibroblasts; parameters: species or system Gallus gallus
# Sequence of Transcription factor Jun (Gallus gallus) (P18870 whole entry): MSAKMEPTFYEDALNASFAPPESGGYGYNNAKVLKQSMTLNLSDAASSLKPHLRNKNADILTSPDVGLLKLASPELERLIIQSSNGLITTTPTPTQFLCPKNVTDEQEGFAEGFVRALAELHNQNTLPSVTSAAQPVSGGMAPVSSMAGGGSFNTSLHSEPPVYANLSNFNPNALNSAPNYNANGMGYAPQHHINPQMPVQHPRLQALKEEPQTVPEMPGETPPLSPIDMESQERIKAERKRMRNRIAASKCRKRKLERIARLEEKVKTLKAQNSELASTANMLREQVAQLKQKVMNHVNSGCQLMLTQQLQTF
SMILES,inhibition [1] [%],inhibition [2],inhibition [3],inhibition [4],Activity [5]
Cc1cc(C)c(S(=O)(=O)N[C@@H](CNC(=O)[C@@H]2CN(C(=O)CC3CCN(C(=O)OC(C)(C)C)CC3)C[C@H]2C(=O)O)C(=O)OC(C)(C)C)c(C)c1 [MYCMYCIN 1],66,,inactive,Active,Non-toxic
CN(C)c1cccc2c(S(=O)(=O)N[C@@H](CNC(=O)[C@@H]3CN(C(=O)CCC4CCN(C(=O)OC(C)(C)C)CC4)C[C@H]3C(=O)O)C(=O)OC(C)(C)C)cccc12,75,inactive,inactive,Active,
CNC(=O)[C@@H]1CN(C(=O)CCCCCNC(=O)OC(C)(C)C)C[C@H]1C(=O)NC[C@H](NS(=O)(=O)CCc1cccc2ccccc12)C(=O)OC(C)(C)C,24,inactive,inactive,Active,
CNC(=O)[C@@H]1CN(C(=O)CCC2CCN(C(=O)OC(C)(C)C)CC2)C[C@H]1C(=O)NCCC(=O)OC(C)(C)C,30,inactive,inactive,Active,
CNC(=O)[C@@H]1CN(C(=O)CCC2CCN(C(=O)OC(C)(C)C)CC2)C[C@H]1C(=O)NC[C@H](NS(=O)(=O)CCc1cccc2ccccc12)C(=O)OC(C)(C)C,43,inactive,inactive,Active,

# Further lines, with some results ahead:
inhibition [1] [%],inhibition [2],inhibition [3],inhibition [4],SMILES,Activity [5]
72,inactive,inactive,Active,CCCCS(=O)(=O)N[C@@H](CNC(=O)[C@@H]1CN(C(=O)CCCCCNC(=O)OC(C)(C)C)C[C@H]1C(=O)O)C(=O)OC(C)(C)C,
18,inactive,,Active,CNC(=O)[C@@H]1CN(C(=O)CCCCCNC(=O)OC(C)(C)C)C[C@H]1C(=O)NC[C@H](NS(=O)(=O)c1cc(Cl)sc1Cl)C(=O)OC(C)(C)C [MYCMYCIN 2],Non-toxic
8,inactive,inactive,Active,CNC(=O)[C@@H]1CN(C(=O)CCCNC(=O)OC(C)(C)C)C[C@H]1C(=O)NC[C@H](NS(=O)(=O)c1cc(Cl)sc1Cl)C(=O)OC(C)(C)C,
